ChEMBL document CHEMBL1131863, “Synthesis and antibacterial activity of HMR 3647 a new ketolide highly potent against erythromycin-resistant and susceptible pathogens” (1999)
≈ marks a conversion by molar mass, not a printed value. Calls of active or inactive are those of the source. No cut-off for these calls is given here.

What was measured:
Escherichia coli [1] = test: The compound was tested in vitro for antibacterial activity against Escherichia coli 250 UCS.; assay type: functional
Haemophilus influenzae [2] = test: The compound was tested in vitro for antibacterial activity against Haemophilus influenza 351HT3.; assay type: functional
Staphylococcus aureus [3] = test: The compound was tested in vitro for antibacterial activity against erythromycin susceptible Staphylococcus aureus 011UC4.; assay type: functional
Staphylococcus aureus [4] = test: The compound was tested in vitro for antibacterial activity against inducibly erythromycin resistant Staphylococcus aureus 011GO25i.; assay type: functional
Streptococcus pneumoniae [5] = test: The compound was tested in vitro for antibacterial activity against constitutively erythromycin resistant Streptococcus pneumoniae 030CR18c.; assay type: functional
Streptococcus pneumoniae [6] = test: The compound was tested in vitro for antibacterial activity against constitutively erythromycin resistant Streptococcus pneumoniae 030PW23c.; assay type: functional
Streptococcus pneumoniae [7] = test: The compound was tested in vitro for antibacterial activity against constitutively erythromycin resistant Streptococcus pneumoniae 030SJ1.; assay type: functional
Streptococcus pneumoniae [8] = test: The compound was tested in vitro for antibacterial activity against erythromycin susceptible Streptococcus pneumoniae 032UC1.; assay type: functional
Staphylococcus aureus [9] = test: The compound was tested in vitro for antibacterial activity against constitutively erythromycin resistant Staphylococcus aureus 011CB20.; assay type: functional
Streptococcus pyogenes [10] = test: The compound was tested in vitro for antibacterial activity against erythromycin susceptible Streptococcus pyogenes 02A1UC1.; assay type: functional
Streptococcus pneumoniae [11] = test: The compound was tested in vitro for antibacterial activity against inducibly erythromycin resistant Streptococcus pneumoniae 030J5i.; assay type: functional
Escherichia coli [12] = test: The compound was tested in vitro for antibacterial activity against Escherichia coli 250 UCS; assay type: functional
Haemophilus influenzae [13] = test: The compound was tested in vitro for antibacterial activity against Haemophilus influenza 351HT3; assay type: functional
Staphylococcus aureus [14] = test: The compound was tested in vitro for antibacterial activity against erythromycin susceptible Staphylococcus aureus 011UC4; assay type: functional
Staphylococcus aureus [15] = test: The compound was tested in vitro for antibacterial activity against inducibly erythromycin resistant Staphylococcus aureus 011GO25i; assay type: functional
Streptococcus pneumoniae [16] = test: The compound was tested in vitro for antibacterial activity against constitutively erythromycin resistant Streptococcus pneumoniae 030CR18c; assay type: functional
Streptococcus pneumoniae [17] = test: The compound was tested in vitro for antibacterial activity against constitutively erythromycin resistant Streptococcus pneumoniae 030PW23c; assay type: functional
Streptococcus pneumoniae [18] = test: The compound was tested in vitro for antibacterial activity against constitutively erythromycin resistant Streptococcus pneumoniae 030SJ1; assay type: functional
Streptococcus pyogenes [19] = test: The compound was tested in vitro for antibacterial activity against erythromycin susceptible Streptococcus pyogenes 02A1UC1; assay type: functional
Staphylococcus aureus [20] = test: The compound was tested in vitro for antibacterial activity against constitutively erythromycin resistant Staphylococcus aureus 011CB20; assay type: functional
Streptococcus pneumoniae [21] = test: The compound was tested in vitro for antibacterial activity against inducibly erythromycin resistant Streptococcus pneumoniae 030J5i; assay type: functional
Streptococcus pneumoniae [22] = test: The compound was tested in vitro for antibacterial activity against erythromycin susceptible Streptococcus pneumoniae 032UC1; assay type: functional
Mus musculus [23] = test: The compound was tested in vivo for antibacterial activity against AmpR beta(+) Haemophilus influenza 351RD7 in mice after oral administration; assay type: functional
Mus musculus [24] = test: The compound was tested in vivo for antibacterial activity against AmpR beta(-) Haemophilus influenza 351TO19 in mice after oral administration; assay type: functional
Mus musculus [25] = test: The compound was tested in vivo for antibacterial activity against Haemophilus influenza 351GR1 in mice after oral administration; assay type: functional
Haemophilus influenzae [26] = test: The compound was tested in vitro for antibacterial activity against 39 strains of Haemophilus influenza AmpR; Value is 2.5/10; assay type: functional, organism-based
Haemophilus influenzae [27] = test: The compound was tested in vitro for antibacterial activity against 47 strains of Haemophilus influenza AmpS; Value is 1.2/5; assay type: functional, organism-based
Mus musculus [28] = test: The compound was tested in vivo for antibacterial activity against constitutively erythromycin resistant Streptococcus pneumoniae 030Cr29 in mice after oral administration; assay type: functional
Mus musculus [29] = test: The compound was tested in vivo for antibacterial activity against constitutively erythromycin resistant Streptococcus pneumoniae 030MV2 in mice after oral administration; assay type: functional
Mus musculus [30] = test: The compound was tested in vivo for antibacterial activity against constitutively erythromycin resistant Streptococcus pneumoniae 030SJ1 in mice after oral administration; assay type: functional
Mus musculus [31] = test: The compound was tested in vivo for antibacterial activity against constitutively erythromycin resistant Streptococcus pneumoniae 030SJ6 in mice after oral administration; assay type: functional
Mus musculus [32] = test: The compound was tested in vivo for antibacterial activity against erythromycin susceptible Staphylococcus aureus 011UC4 in mice after oral administration; assay type: functional
Mus musculus [33] = test: The compound was tested in vivo for antibacterial activity against erythromycin susceptible Streptococcus pneumoniae 032UC1 in mice after oral administration; assay type: functional
Mus musculus [34] = test: The compound was tested in vivo for antibacterial activity against erythromycin susceptible Streptococcus pyogenes 02A1UC1 in mice after oral administration; assay type: functional
Mus musculus [35] = test: The compound was tested in vivo for antibacterial activity against inducibly erythromycin resistant Staphylococcus aureus 011GO3 in mice after oral administration; assay type: functional
Mus musculus [36] = test: The compound was tested in vivo for antibacterial activity against inducibly erythromycin resistant Streptococcus pneumoniae 030RO1 in mice after oral administration; assay type: functional
Staphylococcus sp. = test: The compound was tested in vitro for antibacterial activity against 66 strains of inducibly erythromycin resistant Staphylococci; Value is 40/40; assay type: functional, organism-based
Streptococcus sp. = test: The compound was tested in vitro for antibacterial activity against 31 strains of erythromycin resistant Streptococci; Value is 1.2/40; assay type: functional, organism-based
Streptococcus pneumoniae [37] = test: The compound was tested in vitro for antibacterial activity against 32 strains of inducibly erythromycin resistant Streptococcus pneumoniae Value is 40/40; assay type: functional, organism-based
Streptococcus pneumoniae [38] = test: The compound was tested in vitro for antibacterial activity against 40 strains of constitutively erythromycin resistant Streptococcus pneumoniae Value is 40/40; assay type: functional, organism-based
Streptococcus pneumoniae [39] = test: The compound was tested in vitro for antibacterial activity against 53 strains of Streptococcus pneumoniae PenR Value is 0.3/40; assay type: functional, organism-based

Structure (SMILES)	MIC (Escherichia coli [1]) [µg/mL]	MIC (Haemophilus influenzae [2]) [µg/mL]	MIC (Staphylococcus aureus [3]) [µg/mL]	MIC (Staphylococcus aureus [4]) [µg/mL]	MIC (Streptococcus pneumoniae [5]) [µg/mL]	MIC (Streptococcus pneumoniae [6]) [µg/mL]	MIC (Streptococcus pneumoniae [7]) [µg/mL]	MIC (Streptococcus pneumoniae [8]) [µg/mL]	MIC (Staphylococcus aureus [9]) [µg/mL]	MIC (Streptococcus pyogenes [10]) [µg/mL]	MIC (Escherichia coli [12]) [µg/mL]	MIC (Haemophilus influenzae [13]) [µg/mL]	MIC (Staphylococcus aureus [14]) [µg/mL]	MIC (Staphylococcus aureus [15]) [µg/mL]	MIC (Streptococcus pneumoniae [16]) [µg/mL]	MIC (Streptococcus pneumoniae [17]) [µg/mL]	MIC (Streptococcus pneumoniae [18]) [µg/mL]	MIC (Streptococcus pyogenes [19]) [µg/mL]	MIC (Streptococcus pneumoniae [21]) [µg/mL]	MIC (Streptococcus pneumoniae [22]) [µg/mL]	other results
CC[C@H]1OC(=O)[C@H](C)C(=O)[C@H](C)[C@@H](O[C@@H]2O[C@H](C)C[C@H](N(C)C)[C@H]2O)[C@](C)(OC)C[C@@H](C)C(=O)[C@H](C)[C@H]2N(CCCCn3ccc4ccccc43)C(=O)O[C@]12C	10 (≈ 12.8 µM)	0.6 (≈ 0.765 µM)	0.04 (≈ 0.051 µM)	0.08 (≈ 0.102 µM)	2.5 (≈ 3.19 µM)	2.5 (≈ 3.19 µM)	2.5 (≈ 3.19 µM)	0.02 (≈ 0.0255 µM)	40 (≈ 51 µM)	0.02 (≈ 0.0255 µM)											MIC (Streptococcus pneumoniae [11]): 0.08 µg/mL (≈ 0.102 µM)
CC[C@H]1OC(=O)[C@H](C)C(=O)[C@H](C)[C@@H](O[C@@H]2O[C@H](C)C[C@H](N(C)C)[C@H]2O)[C@](C)(OC)C[C@@H](C)C(=O)[C@H](C)[C@H]2N(CCCCc3ccnc4ccccc34)C(=O)O[C@]12C											40 (≈ 50.3 µM)	1.2 (≈ 1.51 µM)	0.04 (≈ 0.0503 µM)	0.08 (≈ 0.101 µM)	1.2 (≈ 1.51 µM)	1.2 (≈ 1.51 µM)	1.2 (≈ 1.51 µM)	0.02 (≈ 0.0251 µM)	0.02 (≈ 0.0251 µM)	0.02 (≈ 0.0251 µM)	MIC (Staphylococcus aureus [20]): 40 µg/mL (≈ 50.3 µM)
CC[C@H]1OC(=O)[C@H](C)[C@@H](O[C@H]2C[C@@](C)(OC)[C@@H](O)[C@H](C)O2)[C@H](C)[C@@H](O[C@@H]2O[C@H](C)C[C@H](N(C)C)[C@H]2O)[C@](C)(OC)C[C@@H](C)C(=O)[C@H](C)[C@@H](O)[C@]1(C)O [CLARITHROMYCIN]											40 (≈ 53.5 µM)	5 (≈ 6.68 µM)	0.3 (≈ 0.401 µM)	40 (≈ 53.5 µM)	40 (≈ 53.5 µM)	40 (≈ 53.5 µM)	40 (≈ 53.5 µM)	0.08 (≈ 0.107 µM)	40 (≈ 53.5 µM)	0.04 (≈ 0.0535 µM)	ED50 (Mus musculus [23]): 120 mg/kg; ED50 (Mus musculus [24]): > 300 mg/kg; ED50 (Mus musculus [25]): 71 mg/kg; MIC50/MIC90 (Haemophilus influenzae [26]): Active; MIC50/MIC90 (Haemophilus influenzae [27]): Active; ED50 (Mus musculus [28]): > 50 mg/kg; ED50 (Mus musculus [29]): > 50 mg/kg; ED50 (Mus musculus [30]): > 50 mg/kg; ED50 (Mus musculus [31]): > 50 mg/kg; ED50 (Mus musculus [32]): 6 mg/kg; ED50 (Mus musculus [33]): 7.5 mg/kg; ED50 (Mus musculus [34]): 16 mg/kg; ED50 (Mus musculus [35]): 55 mg/kg; ED50 (Mus musculus [36]): > 50 mg/kg; MIC50/MIC90 (Staphylococcus sp.): Active; MIC50/MIC90 (Streptococcus sp.): Active; MIC (Staphylococcus aureus [20]): 40 µg/mL (≈ 53.5 µM); MIC50/MIC90 (Streptococcus pneumoniae [37]): Active; MIC50/MIC90 (Streptococcus pneumoniae [38]): Active; MIC50/MIC90 (Streptococcus pneumoniae [39]): Active
CC[C@H]1OC(=O)[C@H](C)C(=O)[C@H](C)[C@@H](O[C@@H]2O[C@H](C)C[C@H](N(C)C)[C@H]2O)[C@](C)(OC)C[C@@H](C)C(=O)[C@H](C)[C@H]2N(CCCCn3cnc(-c4ccccc4)c3)C(=O)O[C@]12C	40 (≈ 49.3 µM)	2.5 (≈ 3.08 µM)	0.08 (≈ 0.0986 µM)	0.3 (≈ 0.37 µM)	1.2 (≈ 1.48 µM)	20 (≈ 24.7 µM)	2.5 (≈ 3.08 µM)	0.02 (≈ 0.0247 µM)	40 (≈ 49.3 µM)	0.02 (≈ 0.0247 µM)											MIC (Streptococcus pneumoniae [11]): 2.5 µg/mL (≈ 3.08 µM)
CC[C@H]1OC(=O)[C@H](C)C(=O)[C@H](C)[C@@H](O[C@@H]2O[C@H](C)C[C@H](N(C)C)[C@H]2OC(C)=O)[C@](C)(OC)C[C@@H](C)C(=O)/C(C)=C/[C@]1(C)OC(=O)n1ccnc1									40 (≈ 56.7 µM)		20 (≈ 28.3 µM)	2.5 (≈ 3.54 µM)	0.08 (≈ 0.113 µM)	0.15 (≈ 0.213 µM)	10 (≈ 14.2 µM)	10 (≈ 14.2 µM)	10 (≈ 14.2 µM)	0.02 (≈ 0.0283 µM)	0.08 (≈ 0.113 µM)	0.02 (≈ 0.0283 µM)	
